In patent US9358207B2, “Flashmelt oral dosage formulation” (OTSUKA PHARMACEUTICAL CO., LTD., priority 2000, dated 2016):

Test: Hygroscopicity: water content of crystals after storage in dessicator
Format: physicochemical
Details: after 24 hours inside a dessicator at 60° C. and humidity of 100%
Description: For example, Aripiprazole Anhydride Crystals B of the present invention maintain a water content of 0.4% or less after 24 hours inside a dessicator set at a temperature of 60° C. and a humidity of 100%.
Well-known methods of measuring water content can be used as long as they are methods commonly used for measuring the water content of crystals. For example, a method such as the Karl Fischer method can be used.

For `O=C1CCc2ccc(OCCCCN3CCN(c4cccc(Cl)c4Cl)CC3)cc2N1` [Aripiprazole Anhydride Crystals B, aripiprazole], the water content was at most 0.4%.
